# Assay results taken from US20230414626A1, “INDUCTION OF FERROPTOSIS FOR CANCER THERAPY” (Memorial Sloan Kettering Cancer Center, priority 2020, published 2023).
# Test system: PTEN-defective PC-3 prostate cancer xenograft tumors
# Experiment: In vivo xenograft mouse model, PC-3
# Details: PC-3 xenograft, nu/nu mice; IKE 50 mg/kg daily i.p.; CCI-779 2 mg/kg daily i.p.
# Method: FIG. 6 A-F. Combination of mTORC1 inhibition with ferroptosis induction leads to tumor regression in vivo. (A) CRISPR/Cas9-mediated, Dox-induced GPX4 knockout (GPX4-iKO) in BT474 cells, monitored by western blot. (B) Images of resected tumors from mice xenografted with GPX4-iKO BT474 cells. Groups of mice were treated with CCI-779 and/or Dox as indicated (n=6 per group). See Methods for detail. (C) Representative haematoxylin and eosin (H&E) and immunostaining images of GPX4, Ki67, PTGS2 and pS235/236 S6, all counterstained with haematoxylin (blue), are shown from sections of xenografted tumors. Scale bar, 50 μm. (D) Growth curves of BT474 tumors of each group. Data are plotted as mean±s.d., n=6, on the linear scale for actual tumor size (upper panel) or the log 2 scale for the fold change of tumors (bottom panel). (E) Growth curves of PC-3 tumors of each group (n=6), on the linear scale for actual tumor size (upper panel) or the log 2 scale for the fold change of tumor size (bottom panel). […]
# FIG. 13 A-E. Combination of mTORC1 inhibition with ferroptosis induction leads to tumor regression. […] (B) BT474 tumor volume was measured every day for each mouse. […] (E) PC-3 tumor volume was measured every day for each mouse. […]
# For PC-3 tumor models, male athymic nu/nu mice aged 5 to 6 weeks were injected in the right flank with 5×10^6 PC-3 cells. Tumors were measured with callipers daily. […]
smiles,measurement,value
"CC(C)Oc1ccc(C(=O)Cn2ccnc2)cc1-n1c(CN2CCN(C(=O)COc3ccc(Cl)cc3)CC2)nc2ccccc2c1=O [IKE, imidazole ketone erastin]",tumor growth,no effects on tumor growth
